In brackets after ≈: the same amount, converted by molar mass. Activity calls are given as the source filed them. The rule behind the calls is not given here.
Tests used:
[1] = molecular target: PPAR delta/gamma (Homo sapiens) (UniProt P37231+Q03181); assay: Selectivity index, ratio of EC50 for Gal4-tagged PPARgamma ligand binding domain (unknown origin) to EC50 for Gal4-tagged PPARdelta ligand binding domain (unknown origin)
[2] = molecular target: T1, Bile acid receptor (Homo sapiens) (UniProt Q96RI1); assay: Transactivation of human FXR expressed in human HeLa cells incubated for 24 hrs by luciferase reporter gene assay relative to GW4064; type: cell-based
T1 sequence (whole entry): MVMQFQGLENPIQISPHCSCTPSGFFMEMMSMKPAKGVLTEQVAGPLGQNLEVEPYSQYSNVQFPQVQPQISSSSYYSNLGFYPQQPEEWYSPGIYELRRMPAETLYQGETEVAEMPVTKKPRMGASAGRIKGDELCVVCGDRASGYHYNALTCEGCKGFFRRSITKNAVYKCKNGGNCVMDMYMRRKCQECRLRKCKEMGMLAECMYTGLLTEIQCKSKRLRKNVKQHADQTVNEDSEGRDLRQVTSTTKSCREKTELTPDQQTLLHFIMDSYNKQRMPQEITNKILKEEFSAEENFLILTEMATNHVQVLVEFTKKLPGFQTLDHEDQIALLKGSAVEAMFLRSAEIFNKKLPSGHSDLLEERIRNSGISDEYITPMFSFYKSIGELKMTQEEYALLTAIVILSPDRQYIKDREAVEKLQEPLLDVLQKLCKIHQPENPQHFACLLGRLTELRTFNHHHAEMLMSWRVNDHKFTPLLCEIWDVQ

[3] = Cytotoxic activity against human HepG2 cells assessed as LDH release at 30 uM after 48 hrs by LDH release assay (reference value: 100%)
[4] = molecular target: T2, Peroxisome proliferator-activated receptor alpha (Homo sapiens, UniProt Q07869); assay: Transactivation of Gal4-tagged PPARalpha ligand binding domain (unknown origin) expressed in COS7 cells measured after overnight incubation by luciferase reporter gene assay; type: cell-based, COS-7
T2 sequence (Q07869 whole entry): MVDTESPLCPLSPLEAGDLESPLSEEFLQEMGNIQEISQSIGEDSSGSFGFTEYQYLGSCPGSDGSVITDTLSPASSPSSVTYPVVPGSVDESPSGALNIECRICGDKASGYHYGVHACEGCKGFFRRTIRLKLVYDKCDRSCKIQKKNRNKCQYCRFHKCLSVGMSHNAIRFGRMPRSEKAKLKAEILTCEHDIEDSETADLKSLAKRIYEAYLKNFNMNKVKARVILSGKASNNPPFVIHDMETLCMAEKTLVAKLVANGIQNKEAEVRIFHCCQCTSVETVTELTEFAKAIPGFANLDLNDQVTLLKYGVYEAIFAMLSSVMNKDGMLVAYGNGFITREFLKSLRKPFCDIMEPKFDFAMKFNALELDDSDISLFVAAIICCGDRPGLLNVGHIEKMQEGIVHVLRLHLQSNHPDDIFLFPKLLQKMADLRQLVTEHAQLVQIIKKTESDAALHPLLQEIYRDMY

[5] = molecular target: T3, Peroxisome proliferator-activated receptor gamma (Homo sapiens) (UniProt P37231); assay: Transactivation of Gal4-tagged PPARgamma ligand binding domain (unknown origin) expressed in COS7 cells measured after overnight incubation by luciferase reporter gene assay relative to piaglitazone; type: cell-based; settings: Chlorocebus aethiops; COS-7
T3 sequence (whole entry): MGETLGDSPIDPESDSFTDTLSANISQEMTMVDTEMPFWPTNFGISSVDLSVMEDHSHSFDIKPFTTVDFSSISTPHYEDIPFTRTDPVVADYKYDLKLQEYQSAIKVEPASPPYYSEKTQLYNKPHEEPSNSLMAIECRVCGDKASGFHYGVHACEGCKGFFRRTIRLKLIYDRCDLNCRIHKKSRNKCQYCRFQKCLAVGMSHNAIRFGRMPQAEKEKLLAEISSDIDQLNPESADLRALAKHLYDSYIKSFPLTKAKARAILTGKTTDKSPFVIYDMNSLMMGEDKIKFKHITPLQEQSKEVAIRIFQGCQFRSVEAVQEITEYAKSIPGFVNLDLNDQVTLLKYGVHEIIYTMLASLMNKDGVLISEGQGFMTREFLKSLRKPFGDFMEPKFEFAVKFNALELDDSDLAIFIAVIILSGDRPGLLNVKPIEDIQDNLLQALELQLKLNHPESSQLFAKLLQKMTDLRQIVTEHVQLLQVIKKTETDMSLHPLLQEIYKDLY

Homo sapiens [6] = species on record: Homo sapiens; assay: Selectivity index, ratio of EC50 for Gal4-tagged PPARalpha ligand binding domain (unknown origin) to EC50 for Gal4-tagged PPARdelta ligand binding domain (unknown origin)
[7] = Metabolic stability in Sprague-Dawley rat liver microsomes assessed as parent compound remaining at 10 uM measured after 15 mins in presence of NADPH regenerating system by HPLC method (reference value: 97.6 +/- 0.8%); type: ADME; settings: read-out: Stability
[8] = molecular target: T4, Peroxisome proliferator-activated receptor gamma (Homo sapiens, UniProt P37231); assay: Transactivation of Gal4-tagged PPARgamma ligand binding domain (unknown origin) expressed in COS7 cells measured after overnight incubation by luciferase reporter gene assay; type: cell-based, COS-7
T4 sequence (P37231 whole entry): T3 sequence (whole entry)

[9] = Metabolic stability in Sprague-Dawley rat liver microsomes assessed as parent compound remaining at 10 uM measured after 60 mins in presence of NADPH regenerating system by HPLC method (reference value: 97.6 +/- 0.8%); type: ADME; settings: read-out: Stability
[10] = Antiproliferative activity against human HepG2 cells assessed as cell viability at 50 uM after 48 hrs by WST1 assay (reference value: 100%); type: cell-based; settings: read-out: Activity
[11] = Cytotoxic activity against human HepG2 cells assessed as LDH release at 5 uM after 48 hrs by LDH release assay (reference value: 100%)
[12] = Cytotoxic activity against human HepG2 cells assessed as LDH release at 10 uM after 48 hrs by LDH release assay (reference value: 100%)
[13] = molecular target: T5, Peroxisome proliferator-activated receptor delta (Homo sapiens, UniProt Q03181); assay: Transactivation of Gal4-tagged PPARdelta ligand binding domain (unknown origin) expressed in COS7 cells measured after overnight incubation by luciferase reporter gene assay; type: cell-based, COS-7
T5 sequence (Q03181 whole entry): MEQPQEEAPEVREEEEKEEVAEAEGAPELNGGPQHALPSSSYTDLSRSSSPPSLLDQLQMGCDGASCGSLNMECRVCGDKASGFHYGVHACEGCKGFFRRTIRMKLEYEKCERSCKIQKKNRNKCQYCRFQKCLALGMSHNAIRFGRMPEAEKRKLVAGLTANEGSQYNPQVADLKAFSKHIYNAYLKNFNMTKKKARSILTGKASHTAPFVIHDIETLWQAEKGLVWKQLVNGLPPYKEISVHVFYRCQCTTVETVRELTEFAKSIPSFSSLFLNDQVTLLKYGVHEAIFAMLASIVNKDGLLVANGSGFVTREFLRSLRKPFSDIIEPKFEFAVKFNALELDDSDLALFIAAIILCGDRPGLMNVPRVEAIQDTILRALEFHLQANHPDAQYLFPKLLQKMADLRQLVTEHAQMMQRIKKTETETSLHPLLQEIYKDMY

[14] = Antiproliferative activity against human HepG2 cells assessed as cell viability at 10 uM after 48 hrs by WST1 assay (reference value: 100%); type: cell-based; settings: read-out: Activity
[15] = molecular target: T6, Peroxisome proliferator-activated receptor delta (Homo sapiens) (UniProt Q03181); assay: Transactivation of Gal4-tagged PPARdelta ligand binding domain (unknown origin) expressed in COS7 cells measured after overnight incubation by luciferase reporter gene assay relative to L165,041; type: cell-based; settings: Chlorocebus aethiops; COS-7
T6 sequence (whole entry): T5 sequence (Q03181 whole entry)

[16] = Aqueous solubility of the compound; type: physicochemical; settings: aqueous medium (not specified further)
[17] = Antiproliferative activity against human HepG2 cells assessed as cell viability at 5 uM after 48 hrs by WST1 assay (reference value: 100%); type: cell-based; settings: read-out: Activity
[18] = Metabolic stability in Sprague-Dawley rat liver microsomes assessed as parent compound remaining at 10 uM measured after 30 mins in presence of NADPH regenerating system by HPLC method (reference value: 97.6 +/- 0.8%); type: ADME; settings: read-out: Stability
[19] = molecular target: T7, Peroxisome proliferator-activated receptor alpha (Homo sapiens) (UniProt Q07869); assay: Transactivation of Gal4-tagged PPARalpha ligand binding domain (unknown origin) expressed in COS7 cells at 10 uM measured after overnight incubation by luciferase reporter gene assay; type: cell-based; settings: COS-7
T7 sequence (whole entry): T2 sequence (Q07869 whole entry)

[20] = molecular target: T6, Peroxisome proliferator-activated receptor delta (Homo sapiens); assay: Transactivation of Gal4-tagged PPARdelta ligand binding domain (unknown origin) expressed in COS7 cells at 30 uM measured after overnight incubation by luciferase reporter gene assay; type: cell-based; settings: COS-7
Bile acid receptor = molecular target: T8, Bile acid receptor (Homo sapiens, UniProt Q96RI1); assay: Transactivation of human FXR expressed in human HeLa cells incubated for 24 hrs by luciferase reporter gene assay; type: cell-based
T8 sequence (Q96RI1 whole entry): T1 sequence (whole entry)

Homo sapiens [21] = species on record: Homo sapiens; assay: Selectivity index, ratio of EC50 for Gal4-tagged PPARdelta ligand binding domain (unknown origin) to EC50 for human FXR
Homo sapiens [22] = species on record: Homo sapiens; assay: Selectivity index, ratio of EC50 for Gal4-tagged PPARgamma ligand binding domain (unknown origin) to EC50 for human FXR
Homo sapiens [23] = species on record: Homo sapiens; assay: Selectivity index, ratio of EC50 for Gal4-tagged PPARalpha ligand binding domain (unknown origin) to EC50 for human FXR
[24] = molecular target: T1, Bile acid receptor (Homo sapiens); assay: Antagonist activity against human FXR expressed in human HeLa cells incubated for 24 hrs by luciferase reporter gene assay; type: cell-based

| SMILES | max activation [2] [%] | LDH release (% cytotoxicity) at 48 h, 30 µM [3] [%] | EC50 [4] [µM] | max activation [5] [%] | EC50 [8] [µM] | viability at 48 h, 50 µM [10] [%] | LDH release (% cytotoxicity) at 48 h, 5 µM [11] [%] | LDH release (% cytotoxicity) at 48 h, 10 µM [12] [%] | EC50 [13] [µM] | viability at 48 h, 10 µM [14] [%] | max activation [15] [%] | solubility [16] [µM] | viability at 48 h, 5 µM [17] [%] | max activation [19] [%] | Activity [20] | EC50 (Bile acid receptor) [µM] | also measured |
| --- | --- | --- | --- | --- | --- | --- | --- | --- | --- | --- | --- | --- | --- | --- | --- | --- | --- |
| O=C(O)Cc1cccc(NC(=O)c2ccccc2NC(=O)c2ccc3ccccc3c2)c1 | 20.9 | 23.3 | 14.4 | 335 | 18 | 89.3 | -2.4 | 0.3 | 1.3 | 115 | 147 | 6 (≈ 2.55 µg/mL) | 99.5 |  |  |  | Ratio EC50 [1]: 13; Ratio EC50 (Homo sapiens [6]): 11; remaining at 0.25 h, 10 µM [7]: 91.4%; remaining at 1 h, 10 µM [9]: 80.5%; remaining at 0.5 h, 10 µM [18]: 82.3% |
| CC(C)(C)c1ccc(C(=O)Nc2cc(Cl)ccc2C(=O)Nc2cccc(C(=O)O)c2)cc1 | 22 |  |  | 256 | 9 |  |  |  |  |  |  |  |  | 44 | inactive | 0.12 | Ratio EC50 (Homo sapiens [21]): 100; Ratio EC50 (Homo sapiens [22]): 75; Ratio EC50 (Homo sapiens [23]): 100 |
| O=C(O)Cc1cccc(NC(=O)c2ccccc2NC(=O)c2ccc(-c3ccccc3)cc2)c1 | 18.8 | 72.9 | 3 | 125 | 2.6 | 33.6 | -4.5 | -1 | 6.4 | 79.5 | 175 | 1.7 (≈ 0.766 µg/mL) | 96.5 |  |  | 0.7 |  |
| CC(C)(C)c1ccc(C(=O)Nc2ccc(Cl)cc2C(=O)Nc2cccc(C(=O)O)c2)cc1 |  |  |  | 132 | 5.4 |  |  |  |  |  |  |  |  | 18 | inactive |  | inhibition [24]: Active |
